Data from patent US12459952B2, “TREM2 modulators” (Muna Therapeutics ApS, priority 2024, dated 2025).
pEC50: −log10 of the molar value.

Target: T1, Human TREM2 (Homo sapiens, UniProt Q9NZC2)
T1 construct: expressed in transfected cells
Test: Human TREM2 cellular phospho-Syk AlphaLISA assay in HEK293/DAP12+TREM2 stable cell line
Format: cell-based
Settings: HEK293/DAP12+TREM2 cells; for Emax: maximal response relative to the maximal response of the reference agonist, phospho-Syk AlphaLISA; for pEC50: phospho-Syk (Tyr525/526) AlphaLISA signal, 30 min incubation
From the text: Human TREM2, in vitro Measurement of Triggering Receptor Expressed on Myeloid Cells 2 activity using cellular phosphorylation of Spleen Tyrosine Kinase (“Syk”) Assay
HEK-293 cells were co-transfected with separate plasmids encoding TREM2 and DAP12 to generate a stable cell line. After antibiotic selection, functional clone pool analysis and two successive limiting dilutions, the final clone “HEK293/DAP12+TREM2” underwent a qPCR analysis and a pharmacological validation.
TREM2 signaling through DAP12 was monitored in the HEK293/DAP12+TREM2 stable cell line by measuring the phosphorylation levels of the Syk kinase using the commercially available AlphaLISA SureFire Ultra p-SYK (Tyr525/526) Assay Kit (PerkinElmer #ALSU-PSYK), based on the Perkin Elmer AlphaScreen/AlphaLISA technology.
Compounds are transferred to the test plate and tested in full dose response, 8 concentrations in quadruplicate data points. Compound serial dilutions were performed at Cybi-Felix instrument in 100% DMSO and the dose response curves were assembled in automated fashion in 384MPT at Hamilton STARlet instrument. All the stock solutions were prepared at 20 mM in 100% DMSO. For compounds testing, the starting concentration was 100 μM, dilution steps 1:6. A different concentration's range was adapted for compound's activity based on the preliminary results. Finally, a 384MPT reformatted for all compounds at 8 concentrations, quadruplicates, was used as “mother to child” process with a CyBi@-Well dispenser in which 1 μL of each compound was moved into a destination plate pre-filled with […] of EMEM cell culture medium (BIOWHITTAKER_cat.BE12-125F), thus obtaining 3× concentrated compounds working solution. In columns 1-2 and 23-24 the control wells were added. In particular, dose response curves of a reference control agonist were included in column 1 and 24 as reference control agonist (Reference control agonists used include Human TREM2 polyclonal Antibody AF1828: R&D Systems; Human TREM2 monoclonal Antibody MAB1828: R&D Systems). The dose response curves were tested starting at 30 μM, dilution step 1:6. Both “source” compound plate and “destination” compound plate were barcoded and a relationship between the two plates was thus generated.
HEK293/DAP12+TREM2 cells were cultured in EMEM medium supplemented with IX Penicillin/Streptomycin (BIOWHITTAKER_cat.DE17-602E), ULTRAGLUTAMINE I 200 mM, 10% Fetal Bovine Serum plus antibiotics referred to as “HEK293 Culture Medium”. The day before the experiment, cells were detached by gentle wash with DPBS, followed by 5 min incubation at 37° C. with Trypsin solution. Cells were then diluted in HEK293 Culture Medium without antibiotics, counted and seeded into 384-well poly-D-Lysine coated microplates black/clear bottom (GREINER 781946) at a density of 10,000 cells/well in 25 μL/well by the use of a MATRIX WellMate dispenser. Plates were placed into a humidified cell culture incubator at 37° C. with 5% CO2 until the experimental day. 20-24 hours after seeding mature medium was removed and replaced with 10 μL/well of EMEM cell medium supplemented with 0.1% Pluronic F-68 non-ionic surfactant (Thermofisher, 24040032), referred to as “Assay Buffer”, using the CyBi@-Well instrument. Then 5 μL/well of Assay Buffer containing 3× concentrated test compounds or the reference control agonist (in 0.5% final DMSO concentration) were added to the cells with the CyBi@-Well instrument. Cell plates were incubated for 30 min into a humidified cell culture incubator at 37° C. with 5% CO2, then the medium was removed by manually discard. 20 μL/well of lysis buffer were dispensed using the CyBi@-Well instrument and plates were incubated for 10 min at room temperature on a plate shaker (350 rpm). Then, 10 μL/well of lysate were transferred to the Alpha plates.
The CyBi@-Well instrument was used to dispense 5 μL/well of AlphaLISA Acceptor Bead Solution in IX Immunoassay buffer (Perkin Elmer AL000F). […]

T1 sequence (Q9NZC2 19-230): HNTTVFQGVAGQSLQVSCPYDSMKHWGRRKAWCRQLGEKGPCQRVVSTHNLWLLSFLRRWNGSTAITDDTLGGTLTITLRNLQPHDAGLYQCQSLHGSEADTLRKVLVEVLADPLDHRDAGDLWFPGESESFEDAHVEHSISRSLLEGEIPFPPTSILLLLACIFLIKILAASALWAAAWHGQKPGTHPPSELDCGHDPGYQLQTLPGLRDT
T1 sequence (O43914 22-113 partner): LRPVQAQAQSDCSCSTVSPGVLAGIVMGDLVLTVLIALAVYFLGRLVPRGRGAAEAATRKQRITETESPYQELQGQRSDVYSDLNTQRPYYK

Compound	Emax [%]	pEC50
Cn1c(C(F)(F)F)nc2c(-c3ccc(C#N)cc3F)nc(N3CC(Oc4cnn(C(F)F)c4)C3)nc2c1=O [Example 14, 4-(2-(3-((1-(difluoromethyl)-1H-pyrazol-4-yl)oxy)azetidin-1-yl)-7-methyl-8-oxo-6-(trifluoromethyl)-7,8-dihydropyrimido[5,4-d]pyrimidin-4-yl)-3-fluorobenzonitrile]	75 to 110	7.00 to 8.00
Cn1c(C(F)(F)F)nc2c(-c3ccc(C#N)cc3F)nc(N3CC(Oc4cnn(CC5CC5)c4)C3)nc2c1=O [Example 15, 4-(2-(3-((1-(cyclopropylmethyl)-1H-pyrazol-4-yl)oxy)azetidin-1-yl)-7-methyl-8-oxo-6-(trifluoromethyl)-7,8-dihydropyrimido[5,4-d]pyrimidin-4-yl)-3-fluorobenzonitrile]	> 110	7.00 to 8.00
Cn1c(C(F)(F)F)nc2c(-c3ccc(C#N)cc3F)nc(N3CC(Oc4cnn(C5CCCC5)c4)C3)nc2c1=O [Example 18, 4-(2-(3-((1-cyclopentyl-1H-pyrazol-4-yl)oxy)azetidin-1-yl)-7-methyl-8-oxo-6-(trifluoromethyl)-7,8-dihydropyrimido[5,4-d]pyrimidin-4-yl)-3-fluorobenzonitrile]	75 to 110	> 8.00
Cn1c(C(F)(F)F)nc2c(-c3ccc(C#N)cc3F)nc(N3CC(Oc4ccnc(C#N)c4)C3)nc2c1=O [Example 20, 4-((1-(4-(4-cyano-2-fluorophenyl)-7-methyl-8-oxo-6-(trifluoromethyl)-7,8-dihydropyrimido[5,4-d]pyrimidin-2-yl)azetidin-3-yl)oxy)picolinonitrile]	75 to 110	7.00 to 8.00
Cn1c(C(F)(F)F)nc2c(-c3ccc(C#N)cc3F)nc(N3CC(Oc4ccnc(OC(F)F)c4)C3)nc2c1=O [Example 24, 4-(2-(3-((2-(difluoromethoxy)pyridin-4-yl)oxy)azetidin-1-yl)-7-methyl-8-oxo-6-(trifluoromethyl)-7,8-dihydropyrimido[5,4-d]pyrimidin-4-yl)-3-fluorobenzonitrile]	75 to 110	7.00 to 8.00
Cn1c(C(F)(F)F)nc2c(-c3ccc(C#N)cc3F)nc(N3CC(Oc4ccnc(C(F)(F)F)c4)C3)nc2c1=O [Example 25, 3-fluoro-4-(7-methyl-8-oxo-6-(trifluoromethyl)-2-(3-((2-(trifluoromethyl)pyridin-4-yl)oxy)azetidin-1-yl)-7,8-dihydropyrimido[5,4-d]pyrimidin-4-yl)benzonitrile]	75 to 110	7.00 to 8.00
Cn1c(C(F)(F)F)nc2c(-c3ccc(C#N)cc3F)nc(N3CC(Oc4cnnc(Cl)c4)C3)nc2c1=O [Example 26, 4-(2-(3-((6-chloropyridazin-4-yl)oxy)azetidin-1-yl)-7-methyl-8-oxo-6-(trifluoromethyl)-7,8-dihydropyrimido[5,4-d]pyrimidin-4-yl)-3-fluorobenzonitrile]	< 75	6.00 to 7.00
Cn1c(C(F)(F)F)nc2c(-c3ccc(C#N)cc3F)nc(N3CC(Oc4cncnc4)C3)nc2c1=O [Example 27, 3-fluoro-4-(7-methyl-8-oxo-2-(3-(pyrimidin-5-yloxy)azetidin-1-yl)-6-(trifluoromethyl)-7,8-dihydropyrimido[5,4-d]pyrimidin-4-yl)benzonitrile]	< 75	6.00 to 7.00

Continued, values first:

Emax [%]	pEC50	Compound
75 to 110	7.00 to 8.00	CC(C)n1cc(OC2CN(c3nc(-c4ccc(C#N)cc4F)c4nc(C(F)(F)F)n(C)c(=O)c4n3)C2)cn1 [Example 11, 3-fluoro-4-(2-(3-((1-isopropyl-1H-pyrazol-4-yl)oxy)azetidin-1-yl)-7-methyl-8-oxo-6-(trifluoromethyl)-7,8-dihydropyrimido[5,4-d]pyrimidin-4-yl)benzonitrile]
75 to 110	6.00 to 7.00	CCCn1cc(OC2CN(c3nc(-c4ccc(C#N)cc4F)c4nc(C(F)(F)F)n(C)c(=O)c4n3)C2)cn1 [Example 12, 3-fluoro-4-(7-methyl-8-oxo-2-(3-((1-propyl-1H-pyrazol-4-yl)oxy)azetidin-1-yl)-6-(trifluoromethyl)-7,8-dihydropyrimido[5,4-d]pyrimidin-4-yl)benzonitrile]
75 to 110	6.00 to 7.00	Cn1ncc(OC2CN(c3nc(-c4ccc(C#N)cc4F)c4nc(C(F)(F)F)n(C)c(=O)c4n3)C2)c1Cl [Example 13, 4-(2-(3-((5-chloro-1-methyl-1H-pyrazol-4-yl)oxy)azetidin-1-yl)-7-methyl-8-oxo-6-(trifluoromethyl)-7,8-dihydropyrimido[5,4-d]pyrimidin-4-yl)-3-fluorobenzonitrile]
75 to 110	7.00 to 8.00	Cn1c(C(F)(F)F)nc2c(-c3ccc(C#N)cc3F)nc(N3CC(Oc4cnn(C5CCC5)c4)C3)nc2c1=O [Example 16, 4-(2-(3-((1-cyclobutyl-1H-pyrazol-4-yl)oxy)azetidin-1-yl)-7-methyl-8-oxo-6-(trifluoromethyl)-7,8-dihydropyrimido[5,4-d]pyrimidin-4-yl)-3-fluorobenzonitrile]
75 to 110	6.00 to 7.00	Cn1c(C(F)(F)F)nc2c(-c3ccc(C#N)cc3F)nc(N3CC(Oc4cnn(CC(F)F)c4)C3)nc2c1=O [Example 17, 4-(2-(3-((1-(2,2-difluoroethyl)-1H-pyrazol-4-yl)oxy)azetidin-1-yl)-7-methyl-8-oxo-6-(trifluoromethyl)-7,8-dihydropyrimido[5,4-d]pyrimidin-4-yl)-3-fluorobenzonitrile]
75 to 110	7.00 to 8.00	Cn1c(C(F)(F)F)nc2c(-c3ccc(C#N)cc3F)nc(N3CC(Oc4cnn(CC(F)(F)F)c4)C3)nc2c1=O [Example 19, 3-fluoro-4-(7-methyl-8-oxo-2-(3-((1-(2,2,2-trifluoroethyl)-1H-pyrazol-4-yl)oxy)azetidin-1-yl)-6-(trifluoromethyl)-7,8-dihydropyrimido[5,4-d]pyrimidin-4-yl)benzonitrile]
75 to 110	> 8.00	COc1cc(OC2CN(c3nc(-c4ccc(C#N)cc4F)c4nc(C(F)(F)F)n(C)c(=O)c4n3)C2)ccn1 [Example 21, 3-fluoro-4-(2-(3-((2-methoxypyridin-4-yl)oxy)azetidin-1-yl)-7-methyl-8-oxo-6-(trifluoromethyl)-7,8-dihydropyrimido[5,4-d]pyrimidin-4-yl)benzonitrile]
75 to 110	7.00 to 8.00	Cn1c(C(F)(F)F)nc2c(-c3ccc(C#N)cc3F)nc(N3CC(Oc4ccnc(C5CC5)c4)C3)nc2c1=O [Example 22, 4-(2-(3-((2-cyclopropylpyridin-4-yl)oxy)azetidin-1-yl)-7-methyl-8-oxo-6-(trifluoromethyl)-7,8-dihydropyrimido[5,4-d]pyrimidin-4-yl)-3-fluorobenzonitrile]
75 to 110	7.00 to 8.00	Cn1c(C(F)(F)F)nc2c(-c3ccc(C#N)cc3F)nc(N3CC(Oc4ccnc(C(F)F)c4)C3)nc2c1=O [Example 23, 4-(2-(3-((2-(difluoromethyl)pyridin-4-yl)oxy)azetidin-1-yl)-7-methyl-8-oxo-6-(trifluoromethyl)-7,8-dihydropyrimido[5,4-d]pyrimidin-4-yl)-3-fluorobenzonitrile]
< 75	6.00 to 7.00	Cc1ncc(OC2CN(c3nc(-c4ccc(C#N)cc4F)c4nc(C(F)(F)F)n(C)c(=O)c4n3)C2)cn1 [Example 28, 3-fluoro-4-(7-methyl-2-(3-((2-methylpyrimidin-5-yl)oxy)azetidin-1-yl)-8-oxo-6-(trifluoromethyl)-7,8-dihydropyrimido[5,4-d]pyrimidin-4-yl)benzonitrile]
